Measurements published in patent publication US11466024B2, “Bicylic compound acting as an inhibitor” (CHIA TAI TIANQING PHARMACEUTICAL GROUP CO., LTD., priority 2017, dated 2022).

Target: hERG potassium channel (Homo sapiens, UniProt Q12809)
Experiment: in vitro
Settings: human
Protocol: CHO-hERG cells (from Shanghai Institute of Materia Medica, Chinese Academy of Sciences) were cultured in a 175 cm^2 culture flask. When the cell density reached 60% to 80%, the culture medium was removed, the cells were washed once with 7 mL of PBS, and then 3 mL of Detachin was added for cell detachment. After complete cell detachment, 7 mL of culture medium were added for neutralization, the mixture was then centrifuged, the supernatant was aspirated, and another 5 mL of culture medium was added for re-suspension, so as to ensure that the cell density was 2×10^6/mL to 5×10^6/mL.
The single-cell giga-seal and the formation of whole-cell mode were both completed automatically by a Q patch instrument. After a whole-cell recording mode was achieved, the cells were clamped at −80 mV, exposed to a front voltage of −50 mV for 50 ms prior to a depolarizing stimulus (5 s, +40 mV), and then repolarized to −50 mV for 5 s, followed by a recovery to −80 mV. This voltage stimulation was applied every 15 s and recorded for 2 minutes, and the extracellular fluid was then administered, followed by a record lasting for 5 minutes. Thereafter, the administration process was started. Starting from the lowest test concentration, the compounds were administered at each test concentration and the process lasted for 2.5 minutes. […] At least 3 cells (n≥3) were tested at each concentration.
20 mM stock solution of the compound was diluted with the extracellular fluid, and 5 μL of the 20 mM stock solution of the compound was taken, added to 2495 μL of the extracellular fluid, and diluted by 500 times to 40 μM. Thereafter, the resulting mixture was serially and successively diluted by 3 times in an extracellular fluid containing 0.2% DMSO, so as to obtain a final concentration to be tested.
The experimental data was analyzed by XLFit software.

Chain of hERG potassium channel (Q12809 whole entry): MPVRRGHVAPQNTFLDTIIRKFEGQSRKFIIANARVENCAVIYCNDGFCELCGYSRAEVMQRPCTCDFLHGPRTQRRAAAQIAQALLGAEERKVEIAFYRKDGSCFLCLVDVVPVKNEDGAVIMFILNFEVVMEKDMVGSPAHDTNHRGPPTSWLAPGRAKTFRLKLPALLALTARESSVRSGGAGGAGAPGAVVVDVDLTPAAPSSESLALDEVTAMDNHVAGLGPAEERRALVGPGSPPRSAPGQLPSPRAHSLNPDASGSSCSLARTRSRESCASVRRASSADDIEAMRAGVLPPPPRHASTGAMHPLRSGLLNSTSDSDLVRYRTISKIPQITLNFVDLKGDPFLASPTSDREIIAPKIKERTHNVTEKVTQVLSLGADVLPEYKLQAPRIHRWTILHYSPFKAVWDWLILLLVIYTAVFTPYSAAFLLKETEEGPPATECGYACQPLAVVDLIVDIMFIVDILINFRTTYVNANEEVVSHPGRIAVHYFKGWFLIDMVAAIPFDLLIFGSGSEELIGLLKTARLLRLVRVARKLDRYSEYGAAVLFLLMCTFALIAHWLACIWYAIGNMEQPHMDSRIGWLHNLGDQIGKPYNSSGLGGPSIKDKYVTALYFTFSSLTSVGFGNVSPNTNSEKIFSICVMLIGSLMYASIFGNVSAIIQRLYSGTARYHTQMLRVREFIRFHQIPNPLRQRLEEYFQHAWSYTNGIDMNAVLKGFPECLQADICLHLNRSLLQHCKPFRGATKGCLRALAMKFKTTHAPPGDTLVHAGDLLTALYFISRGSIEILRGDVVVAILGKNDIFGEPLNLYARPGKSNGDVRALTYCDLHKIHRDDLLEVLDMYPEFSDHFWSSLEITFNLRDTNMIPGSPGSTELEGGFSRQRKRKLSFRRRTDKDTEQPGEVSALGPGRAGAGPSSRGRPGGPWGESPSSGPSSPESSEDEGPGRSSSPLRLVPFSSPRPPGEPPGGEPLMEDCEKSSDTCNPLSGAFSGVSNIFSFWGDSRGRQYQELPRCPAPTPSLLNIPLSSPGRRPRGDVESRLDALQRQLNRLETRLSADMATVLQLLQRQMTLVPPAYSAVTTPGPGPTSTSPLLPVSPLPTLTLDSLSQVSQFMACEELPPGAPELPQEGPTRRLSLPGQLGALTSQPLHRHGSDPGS

With COc1cc(N)c(Cl)cc1C(=O)NC1CCN(CCCOc2ccc(F)cc2)CC1OC (stereo not shown) [Cisapride, reference compound] the inhibition at 2.5 min, 40 μM was 89.6%.
